Laboratory results: patent US7368431B2, “Polypeptide, the conjugate thereof with doxorubicine and a pharmaceutical composition based thereon” (Zakrytoe Aktsionernoe Obschestvo “Russkie Biotechnologll”, priority 2001, dated 2008)
Peptide text beside a SMILES is read from it. * marks the point of attachment. X1 = COc1cccc2c1C(=O)c1c(O)c3c(c(O)c1C2=O)C[C@@](O)(C(=O)CO)C[C@@H]3O[C@H]1C[C@H](N=CCCCC=N[C@@H](CCSC)C(=O)*)[C@H](O)[C@H](C)O1

Columns and labels:
[1] = tested on: human breast carcinoma cell line MCF-7^wt; experiment: Cytotoxicity, MTT cell survival; assay type: cell-based; settings: 72 hours
Experimental: (§1) Efficacy of the conjugate was studied on the following cell lines: human breast carcinoma cell line MCF-7^wt and resistant human breast carcinoma cell line MCF-7^AdrR; human ovary carcinoma cell line SKOV3 and resistant human ovary carcinoma cell line SKVLB; and murine melanoma cell line B16.
(§2) Study protocol was common for all test runs. The cells cultivated in plastic flasks (COSTAR) in the RPMI medium (SIGMA), which contained 10% of fetal bovine serum (SIGMA), 100 U/ml of penicillin and 100 μg/ml of streptomycin, in a wet environment of 5% CO2 at 37° C., were inoculated in 96-well plates (Costar), 10000 in each well, and studied drugs were then added at different concentrations. After that, the cells were incubated for 72 hours. Two-four hours prior to the end of the incubation period, 50 μl (1 mg/ml) of the MTT solution (3-[4,5-dimethylthiazole-2yl]-2,5-diphenyltetrazole bromide (SIGMA) in the culture medium were added in each well. After the development of coloration, the medium was removed, formazan crystals were dissolved in 150 μl of dimethyl sulfoxide, and the absorbance was measured by spectrophotometry at 540 nm. Survival rates of the cells exposed to free and conjugated DR were determined in percent relative to the survival rate of controls taken as 100%.

[2] = tested on: human ovary carcinoma cell line SKOV3; experiment: Cytotoxicity, MTT cell survival; assay type: cell-based
Experimental: as §1, §2

[3] = tested on: murine melanoma cell line B16; experiment: Cytotoxicity, MTT cell survival; assay type: cell-based; settings: B16, 72 hours
Experimental: as §1, §2

[4] = tested on: resistant human breast carcinoma cell line MCF-7^AdrR; experiment: Cytotoxicity, MTT cell survival; assay type: cell-based; settings: 72 hours
Experimental: as §1, §2

[5] = tested on: resistant human ovary carcinoma cell line SKVLB; experiment: Cytotoxicity, MTT cell survival; assay type: cell-based; settings: SKVLB^AdrR, 72 hours
Experimental: as §1, §2

[6] = tested on: subcutaneously implanted line B16 cancer cells; experiment: Murine implanted tumor model, intravenous administration; assay type: in vivo; settings: mice, s.c. B16, i.v. 0.2 mg/kg of doxorubicin once every four days; for Increase in ADL, %: three injections, relative to controls
Experimental: The medicines were administered at a dose of 0.2 mg/kg of doxorubicin once every four days, three injections in total, starting from day 3 after the cancer implantation.

[7] = tested on: line NIH 3T3 murine fibroblast cells; experiment: Proliferative activity, 3H-thymidine incorporation; assay type: cell-based; settings: NIH 3T3 fibroblasts, 0.1-1000 ng/ml, compared with known polypeptide I (EGF fragment), FIG. 1
Experimental: Proliferative activity of the polypeptide was tested on line NIH 3T3 murine fibroplat cells. The rate of DNA biosynthesis was judged from the amount of ^3H-timidine incorporated in the […] cell fraction. Line NIH 3T3 murine fibroblast cells were cultivated in plastic flasks in the RPM1 medium (SIGMA), which contained 10% of fetal bovine serum (SIGMA), 100 U/mb of penicillin and 100 μg/ml of streptomycin, in a wet environment of 5% CO2 at 37° C. Proliferation of synchronized line NIH 3T3 fibroblasts was induced by adding to the cellular suspension the proposed polypeptide at a different concentration (0.1-1000 ng/ml). The fibroblasts were cultivated in 96-well plates in the complete medium, 200-800 cells in each well containing 200 μl of the medium. ^3H-thymidine (1 μCi/well, […]) was added 2 hours prior to the end of the incubation period. Radioactivity was measured by a scintillation counter (RACKBETA, LKB) with the use of a toluene-based scintillation fluid ZhS-8. The rate of DNA biosynthesis was expressed as the stimulation index (stimulated-to-control cell ratio) calculated by the formula: I=N/No×100%, where I is the stimulation index, N is the number of EGF-stimulated cells, and No is the number of control cells. […]

[8] = Homo sapiens, Breast carcinoma cell

| Compound | IC50 [1, 8] [nM] | IC50 ([2]; Homo sapiens, SK-OV-3, SKOV3, 72 hours) [nM] | IC50 ([3]; Mus musculus) [nM] | IC50 [4, 8] [nM] | IC50 ([5]; Homo sapiens) [nM] | ADL (average duration of life) ([6]; three injections from day 3) [days] | Increase in ADL, % [6] [%] | IC50 [1] [nM] | IC50 ([2]; SKOV3, 72 hours) [nM] | IC50 [3] [nM] | IC50 [4] [nM] | IC50 [5] [nM] | onset of tumors and their growth ([6]; three injections from day 3, compared with free DR) | Increase in ADL, % ([6]; listed as Conjugate, 0.2 mg/kg) [%] | Increase in ADL, % ([6]; listed as conjugate, 0.2 mg/kg) [%] | proliferative effect (incorporated 3H-thymidine, stimulation index) [7] |
| --- | --- | --- | --- | --- | --- | --- | --- | --- | --- | --- | --- | --- | --- | --- | --- | --- |
| COc1cccc2c1C(=O)c1c(O)c3c(c(O)c1C2=O)C[C@@](O)(C(=O)CO)C[C@@H]3O[C@H]1C[C@H](N)[C@H](O)[C@H](C)O1 [DR, doxorubicin] | 58.6 | 209 | 35 | 3700 | 2010 | 23.6 ± 4.0 | −24.8 | – | – | – | – | – | – | – | – | – |
| CC[C@H](C)[C@H](NC(=O)[C@H](Cc1ccc(O)cc1)NC(=O)[C@H](CCSC)N=CCCCC=N[C@H]1C[C@H](O[C@H]2C[C@](O)(C(=O)CO)Cc3c(O)c4c(c(O)c32)C(=O)c2c(OC)cccc2C4=O)O[C@@H](C)[C@H]1O)C(=O)N[C@@H](CCC(=O)O)C(=O)N[C@@H](C)C(=O)N[C@@H](CC(C)C)C(=O)N[C@@H](CC(=O)O)C(=O)N[C@@H](CO)C(=O)N[C@@H](Cc1ccc(O)cc1)C(=O)N[C@@H](C)C(=O)N[C@@H](CS)C(=O)O [Polypeptide-DR conjugate] (X1-YIEALDSYAC-OH) | – | – | – | – | – | 46.6 ± 5.7 | – | 1.3 | 22 | 1.1 | 150 | 70 | considerable delay in the onset of tumors and slowed their growth | 48.5 | 46 | – |
| NH2-Met-Tyr-Ile-Glu-Ala-Leu-Asp-Ser-Tyr-Ala-Cys-COOH (H-MYIEALDSYAC-OH) [proposed polypeptide, synthetic polypeptide H2N-…-COOH similar to EGF fragment 21 to 31, Lys replaced with Ser] | – | – | – | – | – | – | – | – | – | – | – | – | – | – | – | more pronounced dose-dependent proliferative effect |
